US11193932B2, “4,4-disubstituted cyclohexyl bridged heptamethine cyanine dyes and uses thereof” (VisEn Medical, Inc., priority 2013, dated 2021)

Key:
[1] = Absorbance of the dyes (absorption maximum, extinction coefficient); assay type: physicochemical
[2] = Fluorescence emission maximum of the dyes; assay type: physicochemical

| Abs. max ([1]; in water) [nm] | Abs. max ([1]; in water/1× PBS) [nm] | Em. Max ([2]; in water/1× PBS) [nm] | Structure (SMILES) | further results |
| --- | --- | --- | --- | --- |
|  |  |  | CCOC(=O)C1(C(=O)O)CC(/C=C/C2=[N+](CCCS(=O)(=O)[O-])c3ccc(S(=O)(=O)O)cc3C2(C)C)=CC(=C/C=C2/N(CCCS(=O)(=O)O)c3ccc(S(=O)(=O)O)cc3C2(C)C)/C1 (stereo not drawn) [Compound 1b] | % absorption of the dye at 278 nm with respect to its abs. at λmax, 750 nm [1]: 4%; Abs ([1]; 1x PBS): 749 nm; ε (extinction coefficient of the dye) ([1]; 1x PBS, in M-1 cm-1 (unit assumed)): 240,000; Em ([2]; 1x PBS): 771 nm |
| 749 |  |  | CCOC(=O)C1(C(=O)NCCS(=O)(=O)O)CC(/C=C/C2=[N+](CCCS(=O)(=O)[O-])c3ccc(S(=O)(=O)O)cc3C2(C)C)=CC(=C/C=C2/N(CCCS(=O)(=O)O)c3ccc(S(=O)(=O)O)cc3C2(C)C)/C1 (stereo not drawn) [Compound 1c] |  |
|  | 751 | 771 | CC1(C)C(/C=C/C2=CC(=C/C=C3/N(CCCS(=O)(=O)O)c4ccc(S(=O)(=O)O)cc4C3(C)C)/CC(C(=O)O)(C(=O)NCCS(=O)(=O)O)C2)=[N+](CCCS(=O)(=O)[O-])c2ccc(S(=O)(=O)O)cc21 (stereo not drawn) [Compound 1d] |  |
|  | 751 | 771 | CC1(C)C(/C=C/C2=CC(=C/C=C3/N(CCCS(=O)(=O)O)c4ccc(S(=O)(=O)O)cc4C3(C)C)/CC(C(=O)NCCCCCC(=O)O)(C(=O)NCCS(=O)(=O)O)C2)=[N+](CCCS(=O)(=O)[O-])c2ccc(S(=O)(=O)O)cc21 (stereo not drawn) [Compound 1f] |  |
| 775 |  |  | CCN1/C(=C/C=C2C=C(/C=C/C3=[N+](CC)c4ccc5c(S(=O)(=O)[O-])cc(S(=O)(=O)O)cc5c4C3(C)C)CC(C(=O)NCCCCCC(=O)O)(C(=O)NCCS(=O)(=O)O)C/2)C(C)(C)c2c1ccc1c(S(=O)(=O)O)cc(S(=O)(=O)O)cc21 (stereo not drawn) [Compound 4m] | Abs. max ([1]; MeOH): 780 nm; Em. Max ([2]; water): 795 nm |
